A value given as a limit tells only on which side of the number the result lay.

The test concerns the target T1, human TGR5 (Homo sapiens, UniProt Q8TDU6).
T1 construct: expressed in transfected cells; host or cells: HEK293
T1 sequence (Q8TDU6 1-330): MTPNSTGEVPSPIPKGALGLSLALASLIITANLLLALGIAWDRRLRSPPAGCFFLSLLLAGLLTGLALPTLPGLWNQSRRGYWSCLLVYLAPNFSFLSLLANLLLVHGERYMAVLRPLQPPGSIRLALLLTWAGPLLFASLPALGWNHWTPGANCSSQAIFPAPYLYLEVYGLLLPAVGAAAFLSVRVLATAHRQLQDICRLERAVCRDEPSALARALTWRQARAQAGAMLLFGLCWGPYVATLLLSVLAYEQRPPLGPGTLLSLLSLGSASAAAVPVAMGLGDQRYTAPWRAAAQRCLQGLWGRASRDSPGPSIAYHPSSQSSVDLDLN
The test can be described thus: Cell-based TGR5 assay (cAMP generation, HTRF). The following applies: HEK293 cells stably transfected with human TGR5; cAMP by HTRF; 30 minutes at 37° C.; read-out: pEC50 Human TGR5 (converted). The procedure: A primary cell-based assay utilized HEK293 cells stably transfected with a gene encoding human TGR5. Cells were treated with candidate TGR5 activators and assessed for increased intercellular levels of cAMP.
TGR5-mediated cAMP generation was measured using a homogeneous time resolved fluorescence (HTRF) detection method (Cisbio). Test compounds were dissolved in DMSO to a final concentration of 10 mM. Serial 3-fold dilutions of the stock solution were made in DMSO, and these solutions were diluted 100-fold into Hanks Balanced Salt Solution supplemented with 10 mM HEPES pH 7.4, 0.003% Tween 20 and 0.5 mM isobutyl methylxanthine. Five microliters of diluted test compounds were added to wells of a black 384 well plate.
Cells grown overnight at 37° C./5% CO2 were harvested and resuspended in Hanks Balanced Salt Solution containing 10 mM HEPES to a concentration of […]. Five microliters (2500 cells) were dispensed into each well of the 384 well plate containing compound dilutions and incubated at 37° C. for 30 minutes. Each compound was tested in duplicate at 12 concentrations ranging from 0.05 nM to 10 μM.
Following incubation with test compounds, cAMP was detected through the successive addition of 5 μL each of cAMP labeled with the modified allophyocyanin dye d2 (cAMP-d2) and cryptate-labeled anti-cAMP in lysis buffer, and reading HTRF per the manufacturer's instructions.
A standard curve was used to convert the raw HTRF data into [cAMP]. The concentration of cAMP was plotted against log [test compound] and the resulting curves were fit to a 3-parameter logistical equation using GraphPad Prism to determine pEC50 (the negative log of the EC50) and the magnitude of the response.
With `C[C@@H](CCCCC(=O)N(C)C[C@H](O)[C@@H](O)[C@H](O)[C@H](O)CO)c1ccc(Cl)c(CNC2(c3cnccc3-c3ccccc3OC3CC3)CC2)c1` (single isomer, unassigned) [Compound I-328], the EC50 is under 0.1 µM. Next, `C[C@H](CCCCC(=O)N(C)C[C@H](O)[C@@H](O)[C@H](O)[C@H](O)CO)c1ccc(Cl)c(CNC2(c3cnccc3-c3ccccc3OC3CC3)CC2)c1` (single isomer, unassigned) [Compound I-329]: under 0.1 µM; `Cc1ccc([C@@H](C)CCCC(=O)N(C)C[C@H](O)[C@@H](O)[C@H](O)[C@H](O)CO)cc1CNC1(c2cnccc2-c2ccccc2OC2CC2)CC1` (single isomer, unassigned) [Compound I-350]: under 0.1 µM; `Cc1ccc([C@H](C)CCCC(=O)N(C)C[C@H](O)[C@@H](O)[C@H](O)[C@H](O)CO)cc1CNC1(c2cnccc2-c2ccccc2OC2CC2)CC1` (single isomer, unassigned) [Compound I-351]: under 0.1 µM. The result for `Cc1ccc([C@@H](C)CCCC(=O)N(CCS(C)(=O)=O)C[C@H](O)[C@@H](O)[C@H](O)[C@H](O)CO)cc1CNC1(c2cnccc2-c2ccccc2OC2CC2)CC1` (single isomer, unassigned) [Compound I-367] reads under 0.1 µM; that for `Cc1ccc([C@H](C)CCCC(=O)N(CCS(C)(=O)=O)C[C@H](O)[C@@H](O)[C@H](O)[C@H](O)CO)cc1CNC1(c2cnccc2-c2ccccc2OC2CC2)CC1` (single isomer, unassigned) [Compound I-368], under 0.1 µM; that for `Cc1cc(CNC2(c3cnccc3-c3ccccc3OC3CC3)CC2)c(C)cc1CCCCNC(=O)NC[C@H](O)[C@@H](O)[C@H](O)[C@H](O)CO` (stereo in doubt) [Compound I-147, 1-(4-{4-[({1-[4-(2-cyclopropoxyphenyl)pyridin-3-yl]cyclopropyl}amino)methyl]-2,5-dimethylphenyl}butyl)-3-[(2S,3R,4R,5R)-2,3,4,5,6-pentahydroxyhexyl]urea], 0.126 to 1 µM. The result for `Cc1cc(COC2(c3cnccc3-c3ccccc3OC3CC3)CC2)c(C)cc1CCCCNC(=O)NC[C@H](O)[C@@H](O)[C@H](O)[C@H](O)CO` (stereo in doubt) [Compound I-150, 1-{4-[4-({1-[4-(2-cyclopropoxyphenyl)pyridin-3-yl]cyclopropoxy}methyl)-2,5-dimethylphenyl]butyl}-3-[(2S,3R,4R,5R)-2,3,4,5,6-pentahydroxyhexyl]urea] reads under 0.1 µM; that for `Cc1cc(CNC2(c3cnccc3-c3ccccc3OC3CC3)CC2)c(Cl)cc1CCCCNC(=O)NC[C@H](O)[C@@H](O)[C@H](O)[C@H](O)CO` (stereo in doubt) [Compound I-151, 1-(4-{5-chloro-4-[({1-[4-(2-cyclopropoxyphenyl)pyridin-3-yl]cyclopropyl}amino)methyl]-2-methylphenyl}butyl)-3-[(2S,3R,4R,5R)-2,3,4,5,6-pentahydroxyhexyl]urea], 0.126 to 1 µM; that for `O=C(NC[C@H](O)[C@@H](O)[C@H](O)[C@H](O)CO)NC1CCN(C(=O)CCCCc2cc(Cl)c(COC3(c4cnccc4-c4ccccc4OC4CC4)CC3)cc2Cl)CC1` (stereo in doubt) [Compound I-158, 1-(1-{5-[2,5-dichloro-4-({1-[4-(2-cyclopropoxyphenyl)pyridin-3-yl]cyclopropoxy}methyl)phenyl]pentanoyl}piperidin-4-yl)-3-[(2S,3R,4R,5R)-2,3,4,5,6-pentahydroxyhexyl]urea], under 0.1 µM. As for `CN(C[C@H](O)[C@@H](O)[C@H](O)[C@H](O)CO)C(=O)NC1CCN(C(=O)CCCCc2cc(Cl)c(COC3(c4cnccc4-c4ccccc4OC4CC4)CC3)cc2Cl)CC1` (stereo in doubt) [Compound I-159, 1-(1-{5-[2,5-dichloro-4-({1-[4-(2-cyclopropoxyphenyl)pyridin-3-yl]cyclopropoxy}methyl)phenyl]pentanoyl}piperidin-4-yl)-3-methyl-3-[(2S,3R,4R,5R)-2,3,4,5,6-pentahydroxyhexyl]urea], the EC50 is under 0.1 µM. The result for `O=C(CCCCc1cc(Cl)c(COC2(c3cnccc3-c3ccccc3OC3CC3)CC2)cc1Cl)N[C@@H](CN1CCOCC1)[C@@H](O)[C@H](O)[C@H](O)CO` (stereo in doubt) [Compound I-160, 5-[2,5-dichloro-4-({1-[4-(2-cyclopropoxyphenyl)pyridin-3-yl]cyclopropoxy}methyl)phenyl]-N-[(2S,3R,4S,5R)-3,4,5,6-tetrahydroxy-1-(morpholin-4-yl)hexan-2-yl]pentanamide] reads under 0.1 µM; that for `CN(C[C@H](O)[C@@H](O)[C@H](O)[C@H](O)CO)C(=O)NCCCCCc1cc(Cl)c(CNC2(c3cnccc3-c3ccccc3OC3CC3)CC2)cc1Cl` (stereo in doubt) [Compound I-163, 1-(5-{2,5-dichloro-4-[({1-[4-(2-cyclopropoxyphenyl)pyridin-3-yl]cyclopropyl}amino)methyl]phenyl}pentyl)-3-methyl-3-[(2S,3R,4R,5R)-2,3,4,5,6-pentahydroxyhexyl]urea], under 0.1 µM. Next, `CN(CC(=O)O)C[C@H](NC(=O)CCCCc1cc(Cl)c(COC2(c3cnccc3-c3ccccc3OC3CC3)CC2)cc1Cl)[C@@H](O)[C@H](O)[C@H](O)CO` (stereo in doubt) [Compound I-164, 2-{[(2S,3R,4S,5R)-2-{5-[2,5-dichloro-4-({1-[4-(2-cyclopropoxyphenyl)pyridin-3-yl]cyclopropoxy}methyl)phenyl]pentanamido}-3,4,5,6-tetrahydroxyhexyl](methyl)amino}acetic acid]: under 0.1 µM.

For the compound `O=C(CCN(CCC(=O)NC[C@H](O)[C@@H](O)[C@H](O)[C@H](O)CO)C(=O)CCCCc1cc(Cl)c(COC2(c3cnccc3-c3ccccc3OC3CC3)CC2)cc1Cl)NC[C@H](O)[C@@H](O)[C@H](O)[C@H](O)CO` (stereo in doubt) [Compound I-168, 5-[2,5-dichloro-4-({1-[4-(2-cyclopropoxyphenyl)pyridin-3-yl]cyclopropoxy}methyl)phenyl]-N,N-bis(2-{[(2S,3R,4R,5R)-2,3,4,5,6-pentahydroxyhexyl]carbamoyl}ethyl)pentanamide], the EC50 is under 0.1 µM.

In the case of `O=C(CCN(CCC(=O)NC[C@H](O)[C@@H](O)[C@H](O)[C@H](O)CO)C(=O)CCCCc1cc(Cl)c(CNC2(c3cnccc3-c3ccccc3OC3CC3)CC2)cc1Cl)NC[C@H](O)[C@@H](O)[C@H](O)[C@H](O)CO` (stereo in doubt) [Compound I-170, 5-{2,5-dichloro-4-[({1-[4-(2-cyclopropoxyphenyl)pyridin-3-yl]cyclopropyl}amino)methyl]phenyl}-N,N-bis(2-{[(2S,3R,4R,5R)-2,3,4,5,6-pentahydroxyhexyl]carbamoyl}ethyl) pentanamide], the EC50 is 1.26 to 10 µM. Consider `Cc1cc(COC2(c3cnccc3-c3ccccc3OC3CC3)CC2)c(Cl)cc1CCCCNC(=O)[C@@H](O)[C@@H](O)[C@H](O)[C@@H](O)CO` (stereo in doubt) [Compound I-172, (2S,3S,4R,5S)-N-{4-[5-chloro-4-({1-[4-(2-cyclopropoxyphenyl)pyridin-3-yl]cyclopropoxy)methyl)-2-methylphenyl]butyl}-2,3,4,5,6-pentahydroxyhexanamide], for which the EC50 was under 0.1 µM.
